pIC50: −log10 of the molar value. Activity calls are given as the source filed them. No cut-off for these calls is given here.
Experiments:
[1] = tested on: Trypanosoma brucei brucei; assay: Antitrypanosomal activity against bloodstream form of Trypanosoma brucei brucei 221 assessed as parasite growth inhibition at 100 ug/ml incubated for 48 hrs by resazurin staining based assay relative to control; type: functional
[2] = Apparent permeability across basolateral to apical side in dog MDCK-MDR1 cells incubated for 60 mins by LC-MS/MS analysis; type: ADME, cell-based, Canis lupus familiaris
[3] = Apparent permeability across apical to basolateral side in dog MDCK-MDR1 cells incubated for 60 mins by LC-MS/MS analysis; type: ADME, cell-based, Canis lupus familiaris
[4] = Efflux ratio of apparent permeability from basolateral to apical side over apical to basolateral side in MDCK-MDR1 cells; type: ADME, cell-based, Canis lupus familiaris; conditions: dog
[5] = tested on: Poly(dA-dU)oligonucleotide; assay: Binding affinity to poly A-poly U (unknown origin) assessed as thermal stability by measuring melting temperature by spectrophotometric method; type: nucleic-acid assay
[6] = tested on: Poly(dA-dU)oligonucleotide; assay: Binding affinity to poly A-poly U (unknown origin) assessed as binding constant by fluorescence spectra analysis; type: nucleic-acid assay
[7] = tested on: Poly(dA-dT)oligonucleotide; assay: Binding affinity to poly (dA-dT)2 (unknown origin) assessed as thermal stability by measuring melting temperature by spectrophotometric method; type: nucleic-acid assay
[8] = tested on: Trypanosoma brucei brucei; assay: Potency index, ratio of nifurtimox IC50 to compound IC50 for antitrypanosomal activity against blood stream form of Trypanosoma brucei brucei 221; type: functional
dsDNA = assay: Binding affinity to minor groove of ds-DNA (unknown origin) assessed as positive ICD band by CD spectroscopy; type: nucleic-acid assay
[9] = Selectivity index, ratio of IC50 for rat L6 cells to IC50 for Trypanosoma brucei brucei 221; type: toxicity; conditions: read-out: Ratio IC50
Calf thymus DNA [10] = assay: Binding affinity to calf thymus DNA assessed as thermal stability by measuring melting temperature by spectrophotometric method; type: nucleic-acid assay; conditions: Bos taurus
RNA = assay: Binding affinity to major groove of ds-RNA (unknown origin) assessed as positive ICD band by CD spectroscopy; type: nucleic-acid assay
L6 = assay: Cytotoxicity against rat L6 cells incubated for 6 days by resazurin dye based assay; type: cell-based; conditions: L6, 144 h
[11] = tested on: Trypanosoma brucei brucei; assay: Antitrypanosomal activity against bloodstream form of Trypanosoma brucei brucei 221 assessed as parasite growth inhibition at 1 ug/ml incubated for 48 hrs by resazurin staining based assay relative to control; type: functional
[12] = tested on: Poly(dA-dT)oligonucleotide; assay: Binding affinity to p(dAdT)2 (unknown origin) assessed as binding constant by fluorescence spectra analysis; type: nucleic-acid assay
[13] = tested on: Trypanosoma brucei brucei; assay: Antitrypanosomal activity against bloodstream form of Trypanosoma brucei brucei 221 assessed as parasite growth inhibition incubated for 48 hrs by resazurin staining based assay; type: functional, organism-based; conditions: for pIC50: Trypanosoma brucei, 221, 48 h; for IC90: Trypanosoma brucei, 221, time 48 hrs
Calf thymus DNA [14] = assay: Binding affinity to calf thymus DNA assessed as binding constant by fluorescence spectra analysis; type: nucleic-acid assay; conditions: Bos taurus
[15] = tested on: Trypanosoma brucei brucei; assay: Antitrypanosomal activity against bloodstream form of Trypanosoma brucei brucei assessed as parasite growth inhibition incubated for 3 days by alamar blue staining based assay; conditions: 72 h
[16] = tested on: Poly(dG-dC)oligonucleotide; assay: Binding affinity to p(dGdC)2 (unknown origin) assessed as binding constant by fluorescence spectra analysis; type: nucleic-acid assay
[17] = tested on: Trypanosoma brucei brucei; assay: Antitrypanosomal activity against bloodstream form of Trypanosoma brucei brucei 221 assessed as parasite growth inhibition at 10 ug/ml incubated for 48 hrs by resazurin staining based assay relative to control; type: functional

Structure (SMILES) | inhibition at 100 µg/mL [1] [%] | Papp B→A at 1 h [2] [×10⁻⁶ cm/s] | Papp A→B at 1 h [3] [×10⁻⁶ cm/s] | efflux ratio [4] | further results
COc1cc(-c2nc3cc(C4=NCCN4)ccc3[nH]2)ccc1OCc1cn(Cc2ccccc2)nn1.Cl | 100 | < 0.1 | < 0.1 |  | 
COc1cc(-c2nc3cc(C4=NCCN4)ccc3[nH]2)ccc1OCc1ccccn1.Cl | 100 | 0.52 | 0.12 | 4.22 | 
Cl.Cl.O=C(COc1ccc(-c2nc3cc(C4=NCCN4)ccc3[nH]2)cc1)N1CCOCC1 | 100 | 1.53 | 1.06 | 1.44 | 
CCN(CC)CCOc1ccc(-c2nc3cc(C4=NCCN4)ccc3[nH]2)cc1OC.Cl.Cl | 100 | 0.5 | < 0.1 | > 5 | ΔTm [5]: 2.3 °C; log Ks [6]: 5.4; ΔTm [7]: 19.3 °C; Ratio IC50 [8]: >2; Activity (dsDNA): Active; selectivity ratio [9]: > 350; ΔTm (Calf thymus DNA [10]): 7.2 °C; Activity (RNA): Active; pIC50 (L6): < 3.60; inhibition at 1 µg/mL [11]: > 90%; log Ks [12]: 7.1; pIC50 [13]: 6.15; IC90 [13]: 1470 nM; log Ks (Calf thymus DNA [14]): 6.8
Cl.Fc1cc(-c2nc3cc(C4=NCCN4)ccc3[nH]2)ccc1OCc1cn(Cc2ccccc2)nn1 | 100 | 0.09 | < 0.1 |  | 
COc1cc(-c2nc3cc(C4=NCCN4)ccc3[nH]2)ccc1OCC(=O)N1CCOCC1.Cl.Cl | 100 | 1.38 | 1.76 | 0.78 | 
Cl.Cl.Fc1cc(-c2nc3cc(C4=NCCN4)ccc3[nH]2)ccc1OCCN1CCOCC1 | 100 | 0.84 | 0.49 | 1.7 | 
Cl.c1cc(-c2nc3cc(C4=NCCN4)ccc3[nH]2)ccc1OCc1c[nH]nn1 | 100 | 0.84 | 0.46 | 1.81 | inhibition at 1 µg/mL [11]: > 90%; pIC50 [13]: < 5.40
Cl.c1ccc(COc2ccc(-c3nc4cc(C5=NCCN5)ccc4[nH]3)cc2)nc1 | 100 | 0.51 | 0.07 | 7.82 | 
CC1CS(=O)(=O)CCN1/N=C/c1ccc([N+](=O)[O-])o1 (stereo not given) [NIFURTIMOX] |  |  |  |  | pIC50 [15]: 5.70
CCN(CC)CCOc1ccc(-c2nc3cc(C4=NCCN4)ccc3[nH]2)cc1F.Cl.Cl | 100 | 0.49 | 0.17 | 2.92 | ΔTm [5]: 2.4 °C; log Ks [6]: 4.9; ΔTm [7]: 14.7 °C; selectivity ratio [9]: > 68; ΔTm (Calf thymus DNA [10]): 4.5 °C; pIC50 (L6): < 3.60; inhibition at 1 µg/mL [11]: > 90%; log Ks [12]: 6.4; pIC50 [13]: 5.44; log Ks [16]: 4.5; log Ks (Calf thymus DNA [14]): 6
Cl.Fc1cc(-c2nc3cc(C4=NCCN4)ccc3[nH]2)ccc1OCc1ccccn1 | 100 | 0.2 | < 0.1 | > 2.4 | inhibition at 10 µg/mL [17]: 40%
Cl.O=C(COc1ccc(-c2nc3cc(C4=NCCN4)ccc3[nH]2)cc1F)c1ccccc1 | 100 | < 0.1 | < 0.1 |  | 
COc1cc(-c2nc3cc(C4=NCCN4)ccc3[nH]2)ccc1OCCN1CCOCC1.Cl.Cl | 100 | 0.67 | 0.64 | 1.04 | 
Cl.Cl.O=C(COc1ccc(-c2nc3cc(C4=NCCN4)ccc3[nH]2)cc1F)N1CCOCC1 | 100 | 0.99 | 0.86 | 1.16 | 
COc1cc(-c2nc3cc(C4=NCCN4)ccc3[nH]2)ccc1OCC(=O)c1ccccc1.Cl | 100 |  | < 0.1 |  | 
Cl.c1cc(-c2nc3cc(C4=NCCN4)ccc3[nH]2)ccc1OCCN1CCOCC1 | 100 | 0.69 | 0.49 | 1.4 | 
Cl.O=C(COc1ccc(-c2nc3cc(C4=NCCN4)ccc3[nH]2)cc1)c1ccccc1 | 100 | 0.11 | < 0.1 |  | 
COc1cc(-c2nc3cc(C4=NCCN4)ccc3[nH]2)ccc1OCc1cn(CCN2CCOCC2)nn1.Cl.Cl | 100 | 0.89 | 0.48 | 1.86 | 
Cl.Cl.c1cc(-c2nc3cc(C4=NCCN4)ccc3[nH]2)ccc1OCc1cn(CCN2CCOCC2)nn1 | 100 | 1.18 | 1.09 | 1.09 | inhibition at 1 µg/mL [11]: > 90%; pIC50 [13]: < 5.40
Cl.Cl.Fc1cc(-c2nc3cc(C4=NCCN4)ccc3[nH]2)ccc1OCc1cn(CCN2CCOCC2)nn1 | 100 | 0.8 | 0.49 | 1.64 | pIC50 [13]: < 5.40
CCN(CC)CCOc1ccc(-c2nc3cc(C4=NCCN4)ccc3[nH]2)cc1.Cl.Cl | 100 | 0.63 | 0.27 | 2.38 | ΔTm [5]: 4.5 °C; log Ks [6]: 5.1; ΔTm [7]: 17.9 °C; Ratio IC50 [8]: >2; Activity (dsDNA): Active; selectivity ratio [9]: > 530; ΔTm (Calf thymus DNA [10]): 6.4 °C; Activity (RNA): Active; pIC50 (L6): < 3.60; inhibition at 1 µg/mL [11]: > 90%; log Ks [12]: 5.2; pIC50 [13]: 6.33; IC90 [13]: 1820 nM; log Ks [16]: 5.3; log Ks (Calf thymus DNA [14]): 5.9
